According to US20230279016A1, “Tetrahydropyrazolopyrimidines and Related Analogs for Inhibiting YAP/TAZ-TEAD” (THE KATHOLIEKE UNIVERSITEIT LEUVEN, priority 2021, published 2023):

Test system: YAP/TAZ-TEAD transcription
Assay: Reporter gene assay for measuring the inhibition of YAP/TAZ-TEAD transcription (TEAD-responsive element luciferase reporter in Hek293T cells)
Assay type: cell-based
Conditions: Hek293T cells transiently transfected with TEAD-responsive element luciferase reporter, 24 hours incubation
Experimental: Hek293T cells are cultured in DMEM supplemented with 10% fetal bovine serum, Sodium pyruvate, Sodium bicarbonate, L-glutamine. The cells are harvested and transiently transfected with TEAD-responsive element luciferase reporter. Transfected cells are plated in 384-wells plate containing pre-diluted compounds. After 24 hours incubation at 37° C./5%CO2, assay plates were cooled down to RT and levelled to an equal volume per well, prior to the addition of 25 uL luciferase substrate SteadyLite (Perkin Elmer)/well. The plate was shaken for 10 min at 600 rpm, centrifuged for 1min at 500 rpm and measured with an Envision reader (PerkinElmer). The amount of relative light units produced by the TEAD reporter is used to calculated percent of inhibition.
The percent of reporter inhibition was calculated in the presence of a positive control inhibitor (100% inhibition) versus a condition with the presence of the vehicle basal activity of the reporter (0% inhibition). The ability of a test compound to inhibit this activity was determined as:
Percentage inhibition=[1-((RLU determined in the presence of vehicle—RLU determined for sample with test compound present) divided by (RLU determined in the presence of vehicle — RLU determined for sample with positive control inhibitor))] * 100
The activities of the example compounds tested are depicted in the table below. The activity ranges A, B and C refer to EC50 values in the reporter gene assay as described as follows: “A”: EC50 <1 μM; “B” : 1 μM≤EC50≤20 μM and “C” : EC50>20 μM, NT=not tested.

Row | EC50 [nM] | SMILES
1 | < 1000 | C=CC(=O)NCC1CN(c2ccc(C(F)(F)F)cc2)c2ccnn2C1 (single isomer, unassigned) [Cpd. No. 002-En1, (R)- or (S)-N-((4-(4-(trifluoromethyl)phenyl)-4,5,6,7-tetrahydropyrazolo[1,5-a]pyrimidin-6-yl)methyl)acrylamide]
2 | < 1000 | C=CC(=O)NCC1CN(c2ccc(C(F)(F)F)cc2)c2ccnn2C1 (single isomer, unassigned) [Cpd. No. 002-En2, (R)- or (S)-N-((4-(4-(trifluoromethyl)phenyl)-4,5,6,7-tetrahydropyrazolo[1,5-a]pyrimidin-6-yl)methyl)acrylamide]
3 | < 1000 | C=CC(=O)NCC1CN(c2ccc(Cl)cc2)c2ccnn2C1 (single isomer, unassigned) [Cpd. No. 005-En1, (R)- or (S)-N-((4-(4-chlorophenyl)-4,5,6,7-tetrahydropyrazolo[1,5-a]pyrimidin-6-yl)methyl)acrylamide]
4 | < 1000 | C=CC(=O)NCC1CN(c2ccc(Cl)cc2)c2ccnn2C1 (single isomer, unassigned) [Cpd. No. 005-En2, (R)- or (S)-N-((4-(4-chlorophenyl)-4,5,6,7-tetrahydropyrazolo[1,5-a]pyrimidin-6-yl)methyl)acrylamide]
5 | 1000 to 20000 | C=CC(=O)NCC1CN(c2ccc(F)cc2)c2ccnn2C1 (single isomer, unassigned) [Cpd. No. 006-En1, (R)- or (S)-N-((4-(4-fluorophenyl)-4,5,6,7-tetrahydropyrazolo[1,5-a]pyrimidin-6-yl)methyl)acrylamide]
6 | < 1000 | C=CC(=O)NCC1CN(c2ccc(F)cc2)c2ccnn2C1 (single isomer, unassigned) [Cpd. No. 006-En2, (R)- or (S)-N-((4-(4-fluorophenyl)-4,5,6,7-tetrahydropyrazolo[1,5-a]pyrimidin-6-yl)methyl)acrylamide]

More lines, now with the values behind:

Row | SMILES | EC50 [nM]
7 | C=CC(=O)NCC1CN(c2cccc(F)c2)c2ccnn2C1 (single isomer, unassigned) [Cpd. No. 004-En1, (R)- or (S)-N-((4-(3-fluorophenyl)-4,5,6,7-tetrahydropyrazolo[1,5-a]pyrimidin-6-yl)methyl)acrylamide] | 1000 to 20000
8 | C=CC(=O)NCC1CN(c2cccc(F)c2)c2ccnn2C1 (single isomer, unassigned) [Cpd. No. 004-En2, (R)- or (S)-N-((4-(3-fluorophenyl)-4,5,6,7-tetrahydropyrazolo[1,5-a]pyrimidin-6-yl)methyl)acrylamide] | < 1000
9 | C=CC(=O)NCC1CN(c2ccc(C(F)F)cc2)c2ccnn2C1 (single isomer, unassigned) [Cpd. No. 009-En1, (R)- or (S)-N-((4-(4-(difluoromethyl)phenyl)-4,5,6,7-tetrahydropyrazolo[1,5-a]pyrimidin-6-yl)methyl)acrylamide] | 1000 to 20000
10 | C=CC(=O)NCC1CN(c2ccc(C(F)F)cc2)c2ccnn2C1 (single isomer, unassigned) [Cpd. No. 009-En2, (R)- or (S)-N-((4-(4-(difluoromethyl)phenyl)-4,5,6,7-tetrahydropyrazolo[1,5-a]pyrimidin-6-yl)methyl)acrylamide] | < 1000
11 | C=CC(=O)NCC1CN(c2ccc(C(F)F)nc2)c2ccnn2C1 (single isomer, unassigned) [Cpd. No. 010-En1, (R)- or (S)-N-((4-(6-(difluoromethyl)pyridin-3-yl)-4,5,6,7-tetrahydropyrazolo[1,5-a]pyrimidin-6-yl)methyl)acrylamide] | > 20000
12 | C=CC(=O)NCC1CN(c2ccc(C(F)F)nc2)c2ccnn2C1 (single isomer, unassigned) [Cpd. No. 010-En2, (R)- or (S)-N-((4-(6-(difluoromethyl)pyridin-3-yl)-4,5,6,7-tetrahydropyrazolo[1,5-a]pyrimidin-6-yl)methyl)acrylamide] | < 1000
